{
  "source": "paper PMC10310857",
  "about": "(Nature Communications, 2023)",
  "key": {"GhMPK6": {"tested_on": "GhMPK6", "design": "species or system Gossypium hirsutum cv. Lvmian", "conditions": "in vivo"}, "GhRbohD": {"tested_on": "GhRbohD", "design": "species or system Gossypium hirsutum cv. Lvmian", "conditions": "in vivo"}},
  "note": "Several values for one entry are separate records, joined by “and”; a condition that tells them apart may be missing. Identical values can stand only once.",
  "data": [
    {"smiles": "O=C(NO)c1ccccc1", "note": "[Compound 1, benzohydroxamic acid]", "values": [
      {"measurement": "GhMPK6 expression in cotton roots (Fig. 3e) Mean", "setting": "GhMPK6", "result": "2.326 and 2.211 and 2.747 and 2.402"},
      {"measurement": "GhRbohD expression in cotton roots (Fig. 3f) Mean", "setting": "GhRbohD", "result": "6.888 and 6.864 and 7.067 and 8.206"}
    ]}
  ]
}
